For one data set, the system named is NFkB. As to the kind of experiment: IL-6 induced superoxide production (DHE oxidation) in neuronal cultures with NFkB inhibitor. Type of data set: cell-based. Conditions: assessed 4 hours later.
For a further data set, the system named is Nox2. As to the kind of experiment: Nox expression in primary neuronal cultures (immunocytochemistry, Western blot).
Data set [1] deals with primary neuronal cultures. Briefly: DHE oxidation (superoxide and/or hydrogen peroxide production) in primary neuronal cultures exposed to ketamine. In kind it is cell-based, mouse.
In a further data set the test system is PV-interneurons. As to the kind of experiment: parvalbumin and GAD67 immunoreactivity in PV-interneurons in primary neuronal cultures.
Data set [2] concerns PV-interneurons in mouse prefrontal cortex. As to the kind of experiment: two-day ketamine treatment of mice: oxidized DHE, parvalbumin and GAD67 in prefrontal cortex. In kind it is in vivo. Here is the method: Animals and treatments. […] Male C57BL6 mice were obtained from Jackson Labs, Bar Harbor, Me., at 8-12 weeks and housed in our facility until 15 weeks when they were used for experiments. Ketamine (30 mg/kg) was applied intraperitoneally (IP) on two consecutive days at around 4 pm. DHE was applied 30 min after the last ketamine injection as described (19, 20). Briefly, two serial i.p. injections of freshly prepared dihydroethidium (27 mg/kg) are given at 30 minute intervals. Eighteen hours later, mice are anesthetized with inhaled halothane, and perfused intracardially with cold saline followed by 4% paraformaldehyde in PBS. The Nox inhibitor, apocynin (5 mg/kg/day) was given in the drinking water for a total of seven days, with an assumed intake of […] H2O/mouse/day, and ketamine was applied on the last two days. […] All animal studies were approved by the Animal Care Program at the University of California, San Diego, and are in accordance the PHS Guide for the Care and Use of Laboratory Animals, USDA Regulations, and the AVMA Panel on Euthanasia.
Immunohistochemistry: Brains were frontally sliced in a vibratome into 50 μm coronal sections encompassing the prefrontal cortex region (from Bregma 2.0 to 1.3). Sequential slices were processed for floating-section double immunohistochemistry for the detection of parvalbumin and GAD67. Antigen retrieval was performed by incubation of the slices in 1% sodium borohydride for 15 min as described (see reference 34, below), followed by washing in PBS and incubation in 10% normal goat serum in PBS for 16 h at 4° C. Primary antibodies (Calbindin: 1:5000: Calretinin: 1:2000; Parvalbumin: 1:3000, all rabbit polyclonals from Swant, Bellinzona, Switzerland. GAD67: 1:1000, from Chemicon-Millipore, Temecula, Calif.) were diluted in 2% normal goat serum in PBS and applied to the slices for 18 h at 4° C., after which slices were washed in PBS and incubated in a 1:1000 dilution of ALEXAFLUOR™ (Molecular Probes, Invitrogen, Carlsbad, Calif.) conjugated goat anti-rabbit (568) or goat anti-mouse (488) antibodies for 1 hr at room temperature (rt). Slices were washed in PBS and mounted sequentially in glass slides using […]™ (Vector Laboratories, Burlingame, Calif.), covered with a coverslip and allowed to dry for at least 24 h before confocal imaging.
Six slices were analyzed per animal.
Analysis of superoxide and/or hydrogen peroxide production by confocal imaging of in vivo dihydroethidium (DHE) oxidation. Mice will be injected intraperitoneally (i.p.) with dihydroethidium.

Another data set relates to Nox2, Nox4, p22phox. Briefly: Western blot of Nox proteins in brain membranes after in vivo ketamine. The conditions noted are these: ketamine 30 mg/kg i.p., two consecutive days. (In general: Immunoblotting shows a protein as a band on a membrane.)
Another data set has as its system primary cultures. The conditions noted are these: ketamine 0.5 μM, 1 h and 3 h.
The next data set concerns NADPH oxidase (Nox). Briefly: Nox activity in synaptosomes by NADPH-dependent oxygen consumption (oximetry). In kind it is biochemical, mouse. Conditions: ketamine 30 mg/kg in vivo on two consecutive days. The procedure:
Synaptosomal preparations. […] Mice were euthanized by exposure to a lethal dose of inhaled halothane, followed by cervical dislocation. Brains were rapidly removed, cortices dissected and homogenized in 10 volumes of ice-cold isolation buffer (0.32M sucrose, 1 mM EDTA, 10 mM Tris-HCl buffer, pH 7.4, 10 mM glucose). The homogenate was centrifuged at 3100 rpm for 3 min at 4° C., and the supernatant collected, and the pellet was re-homogenized in half the volume of isolation buffer and centrifuged again. Synaptosomal were then isolated as described (see reference 30, below) modified as follows, the pooled supernatants were mixed with PERCOLL™ (Sigma, St. Louis, Mo.) to a final concentration of 15%, and then layered onto a step gradient of 23% and 40% PERCOLL™, and centrifuged at 16,000 rpm for 5 minutes at 4° C. The uppermost band was extracted, rinsed in isolation buffer, centrifuged and resuspended in synaptosomal buffer (120 mM NaCl, 4.7 mM KCl, 2.2 mM CaCl2, 1.2 mM MgCl2, 25 mM HEPES, 1.2 mM MgSO4, 1.2 mM KH2PO4, 10 mM glucose).
Oxygen consumption studies (oximetry). O2 consumption studies on synaptosomes are carried out. […] Studies were carried out to optimize the concentration of synaptosomal protein required, and to confirm stability and viability of synaptosomes and their mitochondria for up to 6 h.

For another data set, the system named is IL-6 mRNA. As to the kind of experiment: cytokine mRNA by RT-PCR in ketamine-treated primary neuronal cultures. Conditions: ketamine 0.5 μM, up to 24 h.
Data set [3] relates to PV-interneurons in mouse prefrontal cortex. As to the kind of experiment: two-day ketamine treatment of mice: oxidized DHE, parvalbumin and GAD67 in prefrontal cortex. In kind it is in vivo. Conditions: 24 h following a single ketamine exposure.
For data set [4], the system named is synaptosomal mitochondria. Briefly: respiration of synaptosomal mitochondria (oximetry). Conditions: after in vivo ketamine 30 mg/kg, two days.
For data set [5] the following is noted: in vivo; cited from earlier work.
Another data set deals with T1, IL-6 receptors (Homo sapiens, UniProt P08887).
T1 construct: host or cells: patients with rheumatoid arthritis / juvenile idiopathic arthritis
T1 sequence (P08887 20-468): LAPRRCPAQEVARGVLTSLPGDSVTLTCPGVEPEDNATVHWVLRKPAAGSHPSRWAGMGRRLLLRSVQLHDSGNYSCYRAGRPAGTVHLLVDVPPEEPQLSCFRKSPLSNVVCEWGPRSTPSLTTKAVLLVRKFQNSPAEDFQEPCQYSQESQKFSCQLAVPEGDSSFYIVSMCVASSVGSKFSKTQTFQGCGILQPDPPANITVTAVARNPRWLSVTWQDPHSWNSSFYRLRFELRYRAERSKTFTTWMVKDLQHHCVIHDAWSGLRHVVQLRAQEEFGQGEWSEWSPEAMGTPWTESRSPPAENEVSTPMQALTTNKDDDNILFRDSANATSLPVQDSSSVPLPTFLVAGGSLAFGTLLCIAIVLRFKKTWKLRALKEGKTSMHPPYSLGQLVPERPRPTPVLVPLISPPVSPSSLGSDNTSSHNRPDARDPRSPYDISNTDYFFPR
The conditions noted are these: Phase I and II clinical trials, cited from earlier work.

Where [6] appears, read: 2-day ketamine, saline 30.1±14.3.
Setting [7] is: ketamine 30 mg/kg i.p., two consecutive days.

Entries after “also recorded” stand apart in the source; their conditions may differ.

“H2N-Ala-Ala-Val-Ala-Leu-Leu-Pro-Ala-Val-Leu-Leu-Ala-Leu-Leu-Ala-Pro-Val-Gln-Arg-Lys-Arg-Gn-Lvs-Leu-Met-Pro-OH (H-AAVALLPAVLLALLAPVQRKRQKLMP-OH) [SN50]”: the “effect on IL-6 induced superoxide production (DHE oxidation)” value with NFkB is reported as “blocks”.

For `CNC1(c2ccccc2Cl)CCCCC1=O` (centres unmarked) [ketamine], the Nox4 expression entry in the data set on Nox2 (after ketamine treatment, cultures) is “did not see changes”. The “Nox2 immunoreactivity, fluorescence quantification” value in the data set on Nox2 (ketamine 0.5 μM, 24 h, control 100+/−8%) was 170+/−15%. For the same molecule, the “oxidized DHE (neuronal superoxide and/or hydrogen peroxide production)” value in data set [1] (ketamine 0.5 μM, 24 h) is “significant increase; also recorded: pronounced increase”. Also, in the data set on PV-interneurons (ketamine 0.5 μM, 24 h), the parvalbumin immunoreactivity result is “reduction”. Further, in data set [2] (setting [6]), the “GAD67 in calbindin cells, mean intensity±SD” value stood at 44.2±14.5 and the “GAD67 in calretinin cells, mean intensity+SD” value amounted to 44.2±14.5. Also, in [2] (2-day ketamine, saline 133.6±35.6), the “calretinin, mean intensity+SD” value was determined as 139.4±28.7. Also, the “calbindin, mean intensity±SD” value in data set [2] (2-day ketamine, saline 215.6±32.1) is 231.6±25.6. In data set [2] (setting [7]), the “oxidized DHE in brain / PFC” value was “widespread increase; also recorded: pronounced increase”; the “parvalbumin and GAD67 immunoreactivity in PV-interneurons of PFC” value is “significant reduction; also recorded: pronounced decrease”. Besides, the “expression of Nox2 and p22phox in membrane preparations of cortical tissue” value in the data set on Nox2, Nox4, p22phox is “significant increase”. Besides, the “superoxide signals (EPR, DIPPMPO)” value in the data set with primary cultures is given as “rapid increase”. Also, the “Nox activity in synaptosomes” value in the data set on NADPH oxidase (Nox) is given as “pronounced increase”. In the data set on IL-6 mRNA, the “levels of other pro-inflammatory cytokines (IL-1, TNF mRNA)” value is listed as “without affecting”. The “effects on PV-interneurons in the prefrontal region” value in [3] is reported as “not present”. Also, the “metabolic activities of synaptosomal mitochondria” value in [4] was “not affected”.

As to “CNTO-328: human-mouse chimeric monoclonal antibody (Mab) to IL-6 (Centocor)”, in data set [5], the plasma half-life result was “roughly 17 days”.

As for `NCc1cc(=O)[nH]o1` [muscimol], the “effect on ketamine-mediated increase in oxidized DHE” value in [1] (co-exposure with ketamine 0.5 μM 24 h, muscimol 10 μM, C3 20 μM, apocynin 0.5 mM) is “prevented; also recorded: complete block”. Besides, the “effect on ketamine-mediated loss of parvalbumin and GAD67 immunoreactivity in PV-interneurons” value in the data set with PV-interneurons (co-exposure with ketamine 24 h, muscimol 10 μM, C3, apocynin 0.5 mM) is given as “prevented; also recorded: preservation”.

For the molecule “Tocilizumab: therapeutic humanized monoclonal antibody, specific antagonist for IL-6 receptors”, the “rheumatoid arthritis disease activity” value with IL-6 receptors (2, 4, 5, 8 or 10 mg/kg, dose-dependent) was “reduced rheumatoid arthritis disease activity significantly”. Moreover, the safety and tolerability entry in the data set with IL-6 receptors was “generally safe and well tolerated”. The “plasma half-life” value in data set [5] is given as “long plasma half-life”.
